These are literature values, as cited in patent publication US20070042005A1, “Pharmaceutical composition comprising fungal cell or fragment thereof” (priority 2003, published 2007).

The conditions of data set [1]: in animals; owing to poor intestinal permeability.
For data set [2] the following is noted: rats.

Turning to `CO[C@@]1(NC(=O)Cc2cccs2)C(=O)N2C(C(=O)O)=C(COC(N)=O)CS[C@@H]21` [cefoxitin], the oral bioavailability in data set [1] was less than 5%.

With `CCCCCCCCCCCCCCCC(=O)OC(CC(=O)[O-])C[N+](C)(C)C` (stereo not drawn) [Palmitoyl carnitine], the “effect on bioavailability of cefoxitin” value in data set [2] is on record as “increase the bioavailability of cefoxitin”.

Turning to `C[C@H](N[C@@H](CCc1ccccc1)C(=O)O)C(=O)N1CCC[C@H]1C(=O)O` [Enalaprilat], the oral absorption result is “poorly absorbed orally”.
